Data published in patent US20070117770A1, “Human ribosomal DNA (rDNA) and ribosomal RNA (rRNA) nucleic acids and uses thereof” (Cylene Pharmaceuticals, Inc., priority 2005, published 2007).

Assays:
Assay in all cases: Protein kinase inhibition assay
Type in all cases: biochemical
[1] = molecular target: MLCK(h) (Homo sapiens, UniProt Q9H1R3); details: read-out: percent residual activity of MLCK(h)
Experimental: (§1) Certain compounds were tested for activity in protein kinase inhibition assays. All substrates were dissolved and diluted to working stocks in de-ionized water, apart from histone H1 (10× working stock in 20 mM MOPS pH 7.0), PDKtide (10× working stock in 50 mM Tris pH 7.0) ATF2 (which is typically stored at a 20× working stock in 50 mM Tris pH 7.5, 150 mM NaCl, 0.1 mM EGTA, 0.03% Brij-35, 50% glycerol, 1 mM benzamidine, 0.2 mM PMSF and 0.1% R-mercaptoethanol), KKLNRTLSFAEPG (SEQ ID NO:203) and RRRLSFAEPG (SEQ ID NO:204) (50 mM HEPES pH 7.4) and GGEEEEYFELVKKKK (SEQ ID NO:205) (20 mM MOPS pH 7.0). All kinases were pre-diluted to a 10× working concentration prior to addition into the assay. The composition of the dilution buffer for each kinase is detailed below.
In a final reaction volume of 25 μl, MLCK (h) (5-10 mU) is incubated with 8 mM MOPS pH 7.0, 0.2 mM EDTA, 0.5 mM CaCl2, 16 μg/ml calmodulin,250 μM KKLNRTLSFAEPG (SEQ ID NO:203), 10 mM MgAcetate and [gamma-33P-ATP] (specific activity approx. 500 cpm/pmol, concentration as required). The reaction is initiated by the addition of the MgATP mix. After incubation for 40 minutes at room temperature, the reaction is stopped by the addition of 5 μl of a 3% phosphoric acid solution. […]

[2] = molecular target: EGFR(L858R)(h) (Homo sapiens, UniProt P00533, L858R); details: read-out: percent residual activity of EGFR(L858R)(h)
Chain of EGFR(L858R)(h) (P00533 25-1210 L858R): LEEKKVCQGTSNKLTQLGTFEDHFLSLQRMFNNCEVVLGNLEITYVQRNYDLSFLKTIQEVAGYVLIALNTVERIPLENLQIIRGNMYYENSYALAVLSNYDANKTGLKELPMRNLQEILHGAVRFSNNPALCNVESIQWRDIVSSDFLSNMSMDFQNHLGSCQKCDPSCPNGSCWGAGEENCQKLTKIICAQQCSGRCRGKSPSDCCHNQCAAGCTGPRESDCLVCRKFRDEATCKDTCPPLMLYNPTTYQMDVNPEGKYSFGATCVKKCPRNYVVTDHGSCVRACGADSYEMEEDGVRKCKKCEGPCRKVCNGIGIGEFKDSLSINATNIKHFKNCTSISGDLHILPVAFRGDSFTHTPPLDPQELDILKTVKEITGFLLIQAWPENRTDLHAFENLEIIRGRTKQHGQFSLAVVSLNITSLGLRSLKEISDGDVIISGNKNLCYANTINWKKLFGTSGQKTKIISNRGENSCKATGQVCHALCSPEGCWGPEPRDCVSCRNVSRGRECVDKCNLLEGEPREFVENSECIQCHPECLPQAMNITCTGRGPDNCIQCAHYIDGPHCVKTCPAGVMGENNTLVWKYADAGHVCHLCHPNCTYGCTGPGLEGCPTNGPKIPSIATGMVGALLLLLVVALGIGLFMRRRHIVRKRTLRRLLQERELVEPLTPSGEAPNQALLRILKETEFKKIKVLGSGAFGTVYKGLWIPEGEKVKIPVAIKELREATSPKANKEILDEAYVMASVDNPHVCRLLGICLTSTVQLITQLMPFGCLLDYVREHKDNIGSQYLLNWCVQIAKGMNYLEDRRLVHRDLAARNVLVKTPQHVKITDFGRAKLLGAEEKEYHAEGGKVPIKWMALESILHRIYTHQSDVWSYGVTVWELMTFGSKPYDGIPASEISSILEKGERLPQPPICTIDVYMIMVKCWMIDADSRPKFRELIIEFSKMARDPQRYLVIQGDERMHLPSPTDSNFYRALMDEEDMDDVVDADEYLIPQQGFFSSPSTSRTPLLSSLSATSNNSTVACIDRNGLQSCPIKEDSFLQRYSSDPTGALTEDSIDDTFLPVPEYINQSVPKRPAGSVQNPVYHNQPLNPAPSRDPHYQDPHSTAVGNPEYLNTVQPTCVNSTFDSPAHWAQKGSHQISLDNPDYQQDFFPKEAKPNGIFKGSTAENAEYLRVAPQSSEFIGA
Experimental: as §1
(§2) In a final reaction volume of 25 μl, EGFR (L858R) (h) (5-10 mU) is incubated with 8 mM MOPS pH 7.0, 0.2 mM EDTA, 0.1 mg/ml poly(Glu, Tyr) 4:1, 10 mM MgAcetate and [gamma-33P-ATP] (specific activity approx. 500 cpm/pmol, concentration as required). The reaction is initiated by the addition of the MgATP mix. After incubation for 40 minutes at room temperature, the reaction is stopped by the addition of 5 μl of a 3% phosphoric acid solution. 10 μl of the reaction is then spotted onto a Filtermat A and washed three times for 5 minutes in 75 mM phosphoric acid and once in methanol prior to drying and scintillation counting.

[3] = molecular target: TrkA(h) (Homo sapiens, UniProt P04629); details: read-out: percent residual activity of TrkA(h)
Chain of TrkA(h) (P04629 33-796): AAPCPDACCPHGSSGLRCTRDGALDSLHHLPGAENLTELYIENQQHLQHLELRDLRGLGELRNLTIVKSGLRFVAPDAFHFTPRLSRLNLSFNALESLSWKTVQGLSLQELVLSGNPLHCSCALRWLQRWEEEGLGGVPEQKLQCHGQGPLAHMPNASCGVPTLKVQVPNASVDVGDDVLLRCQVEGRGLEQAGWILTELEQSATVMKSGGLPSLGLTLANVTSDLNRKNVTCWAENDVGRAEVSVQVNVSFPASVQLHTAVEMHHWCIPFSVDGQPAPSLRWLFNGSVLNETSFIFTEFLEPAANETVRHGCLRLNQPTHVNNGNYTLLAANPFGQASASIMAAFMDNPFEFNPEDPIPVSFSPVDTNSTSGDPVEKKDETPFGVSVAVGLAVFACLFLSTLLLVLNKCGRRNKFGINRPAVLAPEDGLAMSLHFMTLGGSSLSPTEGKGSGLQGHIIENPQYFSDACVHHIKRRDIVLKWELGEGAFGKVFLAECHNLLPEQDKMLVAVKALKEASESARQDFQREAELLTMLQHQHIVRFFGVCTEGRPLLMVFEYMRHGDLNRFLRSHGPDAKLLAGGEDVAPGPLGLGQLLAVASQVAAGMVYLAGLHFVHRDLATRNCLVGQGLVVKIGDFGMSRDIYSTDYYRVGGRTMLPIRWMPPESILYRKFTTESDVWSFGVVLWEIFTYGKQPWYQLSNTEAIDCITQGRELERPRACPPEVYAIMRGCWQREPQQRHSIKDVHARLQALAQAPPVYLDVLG
Experimental: as §1
as §2, with “TrkA” for “EGFR (L858R)”, “250 μM KKKSPGEYVNIEFG (SEQ ID NO:207),” for “0.1 mg/ml poly(Glu, Tyr) 4:1,”, “P30 filtermat” for “Filtermat A”

[4] = molecular target: Snk(h) (Homo sapiens, UniProt Q9NYY3); details: read-out: percent residual activity of Snk(h)
Chain of Snk(h) (Q9NYY3 whole entry): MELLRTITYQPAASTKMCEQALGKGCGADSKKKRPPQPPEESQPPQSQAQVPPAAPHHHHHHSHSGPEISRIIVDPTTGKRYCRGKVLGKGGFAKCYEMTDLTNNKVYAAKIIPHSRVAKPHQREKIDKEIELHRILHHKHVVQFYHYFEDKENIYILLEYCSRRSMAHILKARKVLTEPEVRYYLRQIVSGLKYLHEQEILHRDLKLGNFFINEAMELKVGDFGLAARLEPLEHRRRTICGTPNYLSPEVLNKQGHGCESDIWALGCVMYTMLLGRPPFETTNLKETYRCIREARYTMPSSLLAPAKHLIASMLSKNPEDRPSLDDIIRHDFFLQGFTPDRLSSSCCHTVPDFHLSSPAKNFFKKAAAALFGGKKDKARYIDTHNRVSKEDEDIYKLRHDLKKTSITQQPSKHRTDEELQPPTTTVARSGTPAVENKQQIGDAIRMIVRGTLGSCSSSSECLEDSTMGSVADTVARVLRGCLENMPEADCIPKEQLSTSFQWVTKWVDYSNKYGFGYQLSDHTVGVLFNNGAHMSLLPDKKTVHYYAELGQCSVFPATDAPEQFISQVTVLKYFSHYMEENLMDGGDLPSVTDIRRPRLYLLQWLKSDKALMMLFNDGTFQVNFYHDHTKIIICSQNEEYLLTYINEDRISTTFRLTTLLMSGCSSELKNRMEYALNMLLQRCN
Experimental: as §1
as §2, with “Snk” for “EGFR (L858R)”, “2” for “0.1”, “casein,” for “poly(Glu, Tyr) 4:1,”, “P30 filtermat” for “Filtermat A”

[5] = molecular target: ROCK-I(h) (Homo sapiens, UniProt Q13464); details: read-out: percent residual activity of ROCK-I(h)
Chain of ROCK-I(h) (Q13464 whole entry): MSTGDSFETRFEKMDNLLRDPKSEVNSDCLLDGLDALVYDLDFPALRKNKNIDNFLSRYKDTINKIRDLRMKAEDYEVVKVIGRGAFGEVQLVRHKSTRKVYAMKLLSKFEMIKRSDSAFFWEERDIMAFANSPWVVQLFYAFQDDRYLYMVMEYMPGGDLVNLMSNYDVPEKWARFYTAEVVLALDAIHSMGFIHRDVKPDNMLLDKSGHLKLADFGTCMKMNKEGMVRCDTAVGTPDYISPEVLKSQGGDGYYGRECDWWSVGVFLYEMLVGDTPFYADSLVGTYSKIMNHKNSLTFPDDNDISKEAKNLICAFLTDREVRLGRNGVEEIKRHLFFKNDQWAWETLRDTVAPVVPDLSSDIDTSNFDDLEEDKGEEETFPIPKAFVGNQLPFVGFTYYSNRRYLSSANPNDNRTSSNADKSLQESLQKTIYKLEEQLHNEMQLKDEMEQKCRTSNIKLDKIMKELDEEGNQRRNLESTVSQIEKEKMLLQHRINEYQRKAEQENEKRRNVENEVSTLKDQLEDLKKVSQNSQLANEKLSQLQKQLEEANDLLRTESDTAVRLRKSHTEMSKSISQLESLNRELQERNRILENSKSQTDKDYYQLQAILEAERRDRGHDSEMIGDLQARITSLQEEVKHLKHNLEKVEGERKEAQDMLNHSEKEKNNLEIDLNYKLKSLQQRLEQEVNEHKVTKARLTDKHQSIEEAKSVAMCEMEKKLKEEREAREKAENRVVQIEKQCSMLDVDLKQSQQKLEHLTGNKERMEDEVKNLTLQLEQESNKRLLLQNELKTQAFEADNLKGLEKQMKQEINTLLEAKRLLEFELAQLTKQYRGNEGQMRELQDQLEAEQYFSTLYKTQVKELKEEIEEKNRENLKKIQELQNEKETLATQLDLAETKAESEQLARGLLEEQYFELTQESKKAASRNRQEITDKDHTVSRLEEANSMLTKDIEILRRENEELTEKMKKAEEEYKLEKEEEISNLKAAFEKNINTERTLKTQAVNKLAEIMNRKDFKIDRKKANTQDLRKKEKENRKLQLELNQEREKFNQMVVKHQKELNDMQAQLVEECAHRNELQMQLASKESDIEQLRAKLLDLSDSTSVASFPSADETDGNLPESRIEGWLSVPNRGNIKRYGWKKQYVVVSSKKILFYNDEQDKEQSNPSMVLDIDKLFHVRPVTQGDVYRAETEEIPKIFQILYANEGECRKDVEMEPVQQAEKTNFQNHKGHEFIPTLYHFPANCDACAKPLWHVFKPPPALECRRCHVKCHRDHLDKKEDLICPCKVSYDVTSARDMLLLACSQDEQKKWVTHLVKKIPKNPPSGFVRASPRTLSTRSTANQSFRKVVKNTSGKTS
Experimental: as §1
as §2, with “ROCK-I” for “EGFR (L858R)”, “30 μM […] (SEQ ID NO:222),” for “0.1 mg/ml poly(Glu, Tyr) 4:1,”, “P30 filtermat” for “Filtermat A”

[6] = molecular target: EphB4(h) (Homo sapiens, UniProt P54760); details: read-out: percent residual activity of EphB4(h)
Chain of EphB4(h) (P54760 16-987): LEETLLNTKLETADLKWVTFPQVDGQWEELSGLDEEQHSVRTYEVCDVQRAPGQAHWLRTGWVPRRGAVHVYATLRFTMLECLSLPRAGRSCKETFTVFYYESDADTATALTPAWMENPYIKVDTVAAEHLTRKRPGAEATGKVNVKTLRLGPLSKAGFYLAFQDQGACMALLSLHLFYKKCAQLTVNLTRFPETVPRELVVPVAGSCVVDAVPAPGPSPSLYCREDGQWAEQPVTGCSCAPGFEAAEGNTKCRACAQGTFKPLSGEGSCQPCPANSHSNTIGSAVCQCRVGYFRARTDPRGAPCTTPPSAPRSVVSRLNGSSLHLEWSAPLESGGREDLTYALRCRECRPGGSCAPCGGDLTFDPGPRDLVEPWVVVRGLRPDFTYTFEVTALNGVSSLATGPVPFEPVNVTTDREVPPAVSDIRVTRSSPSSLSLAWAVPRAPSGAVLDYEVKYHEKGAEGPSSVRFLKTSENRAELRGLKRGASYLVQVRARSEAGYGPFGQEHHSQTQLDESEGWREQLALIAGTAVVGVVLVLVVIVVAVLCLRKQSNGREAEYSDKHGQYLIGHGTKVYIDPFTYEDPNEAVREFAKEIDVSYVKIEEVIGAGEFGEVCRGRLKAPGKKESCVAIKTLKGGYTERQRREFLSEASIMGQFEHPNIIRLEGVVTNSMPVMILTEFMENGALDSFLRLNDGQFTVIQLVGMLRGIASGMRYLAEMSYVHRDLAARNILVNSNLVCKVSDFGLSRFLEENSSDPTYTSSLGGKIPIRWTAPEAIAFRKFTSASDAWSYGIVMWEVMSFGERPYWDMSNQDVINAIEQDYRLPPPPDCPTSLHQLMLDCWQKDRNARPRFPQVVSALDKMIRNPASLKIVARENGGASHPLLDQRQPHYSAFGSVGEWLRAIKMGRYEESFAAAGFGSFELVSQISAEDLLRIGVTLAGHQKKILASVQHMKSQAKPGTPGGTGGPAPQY
Experimental: as §1
as §2, with “EphB4” for “EGFR (L858R)”, “EDTA, 10 mM MnCl2,” for “EDTA,”

remaining activity at 2.5 µM [1] | remaining activity at 2.5 µM [2] | remaining activity at 2.5 µM [3] | remaining activity at 2.5 µM [4] | remaining activity at 2.5 µM [5] | remaining activity at 2.5 µM [6] | Structure (SMILES)
77% | 113% | 25% | 125% | 91% | 96% | CN1CCCC1CCNC(=O)c1cn2c3c(c(N4CCC(c5cnccn5)C4)c(F)cc3c1=O)Oc1cc3ccccc3cc1-2 (stereo not drawn) [Compound A-1]
94% | 109% | 80% | 125% | 101% | 108% | CC(=O)N1CCN(c2ccc3c(=O)c(C(=O)NCCN4CCCC4)c4n(C)c5ccccc5n4c3n2)CC1 [Compound B-1]
